# Measured values published in patent publication US20240317727A1 (Duke University, priority 2018, published 2024).
# Like-named read-outs stand apart in the source and are kept apart here.
# What was measured:
# [1] = target: T1, purified recombinant human HSF1 (HSF1 DNA binding domain) (Homo sapiens, UniProt Q00613); assay: Melting temperature of HSF1 DBD with HSF1 degrader compounds (Sypro orange); details: read-out: ΔTm (° C.)
# T1 sequence (Q00613 15-120): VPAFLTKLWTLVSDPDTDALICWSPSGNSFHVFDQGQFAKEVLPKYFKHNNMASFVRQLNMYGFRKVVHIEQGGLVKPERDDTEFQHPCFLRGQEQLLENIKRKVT
# Protocol: The melting temperature (ΔTm) for purified recombinant human HSF1 (HSF1 DNA binding domain) was determined in the presence of HSF1 degrader compounds shown in Table 5 and compared to the solvent DMSO. Sypro orange dye was added to the HSF1 DBD (5 micromolar final concentration) in buffer, mixed and distributed to wells in 384 well microtiter plates. HSF1 degrader compound (12.5 micromolar) or DMSO solvent was added to three replicate wells per compound concentration, mixed and plates loaded into a Quant Studio thermnocycler and run on a temperature gradient from 25° C. to 85° C. with increments of 0.5° C. steps. Melting curves were obtained and analyzed using the ThermnoFisher Shift Software 1.4 fitted with a Boltzmann equation to determine the change in melting temperature of the protein in the presence of DMSO as compared to compound. The difference in the melting temperature under these two conditions was assigned as the change in melting temperature of ΔTm.
# [2] = test system: C4-2 prostate cancer cells; assay: C4-2 cell proliferation, Cell Titre Glo; format: cell-based; details: Homo sapiens, 48-hour period, 9-point dilution series, read-out: Cell Viability IC50
# Protocol: Next, cell viability of C4-2 prostate cancer cells was determined. C4-2 prostate cancer cells were grown in RMPI-1640 (no L-glutamine, Gibco 21870076) supplemented with 10% fetal bovine […] (non-heat-inactivated, Cytiva Hyclone SH30071.03). […] A 9-point dilution series was used to assess the ability of each compound to inhibit the growth of C4-2 prostate cancer cells over a 48-hour period, as compared to negative control solvent, DMSO. Cell proliferation was measured by the Cell Titre Glo assay using 384 well microtiter plate reader to quantitate luminescence. The IC50 was determined from the values obtained.
# [3] = target: T2, recombinant HSF1 DNA-binding domain (DBD) (Homo sapiens, UniProt Q00613); assay: Differential Scanning Fluorimetry (DSF), HSF1 DBD melting temperature; details: 5 μM HSF1 DBD, 25PM Compound, positive = stabilizes, negative = destabilizes HSF1
# T2 sequence (Q00613 15-120): T1 sequence (Q00613 15-120)
# [4] = 12.5 micromolar compound, 5 micromolar HSF1 DBD, compared to DMSO
SMILES,"ΔTm at 12.5 µM [1, 4]",IC50 [2],further results
"N#Cc1ccc(NC(=O)Nc2ccc3occc3c2)cc1 [Compound 246, 1-(benzofuran-5-yl)-3-(4-cyanophenyl)urea]",3.23 °C,> 10 µM,
"N#Cc1ccc(NC(=O)Nc2ccc(Cl)c([N+](=O)[O-])c2)cc1C(F)(F)F [Compound 240, 1-(4-chloro-3-nitrophenyl)-3-(4-cyano-3-(trifluoromethyl)phenyl)urea]",,0.563 µM,ΔTm at 12.5 µM [1]: 3.01 °C
"N#Cc1ccc(NC(=O)Nc2cccc(S(=O)(=O)C(F)(F)F)c2)cc1 [Compound 275, 1-(4-cyanophenyl)-3-(3-((trifluoromethyl)sulfonyl)phenyl)urea]",1.31 °C,,
"N#Cc1ccc(NC(=O)Nc2ccc3c(c2)S(=O)(=O)C=C3)cc1C1CC1 [Compound 259, 1-(4-cyano-3-cyclopropylphenyl)-3-(1,1-dioxidobenzo[b]thiophen-6-yl)urea]",1.25 °C,,
"CCc1cc(NC(=O)Nc2ccc3c(c2)S(=O)(=O)C=C3)ccc1C#N [Compound 262, 1-(4-cyano-3-ethylphenyl)-3-(1,1-dioxidobenzo[b]thiophen-6-yl)urea]",2.47 °C,,
"CS(=O)(=O)Nc1cccc(NC(=O)Nc2ccc(C#N)cc2)c1 [Compound 276, N-(3-(3-(4-cyanophenyl)ureido)phenyl)methanesulfonamide]",0.12 °C,,
"Cc1cc(NC(=O)Nc2ccc3c(c2)S(=O)(=O)C=C3)ccc1C#N [Compound 261, 1-(4-cyano-3-methylphenyl)-3-(1,1-dioxidobenzo[b]thiophen-6-yl)urea]",1.06 °C,2.29 µM,
"N#Cc1ccc(NC(=O)Nc2ccc3c(c2)S(=O)(=O)C=C3)cc1OCCN1CCOCC1 [Compound 295, 1-(4-cyano-3-(2-morpholinoethoxy)phenyl)-3-(1,1-dioxidobenzo[b]thiophen-6-yl)urea]",,> 10 µM,ΔTm at 12.5 µM [1]: -0.03 °C
"N#Cc1ccc(NC(=O)Nc2ccc(C#N)c(C(F)(F)F)c2)cc1C(F)(F)F [Compound 252, 1,3-bis(4-cyano-3-(trifluoromethyl)phenyl)urea]",,2.08 µM,ΔTm at 12.5 µM [1]: 1.33 °C
"N#Cc1cccc(NC(=O)Nc2ccc3c(c2)S(=O)(=O)C=C3)n1 [Compound 267, 1-(6-cyanopyridin-2-yl)-3-(1,1-dioxidobenzo[b]thiophen-6-yl)urea]",-0.19 °C,> 10 µM,
"N#Cc1ccc(NC(=O)Nc2ccc(C#N)cc2)cc1 [Compound 253, 1,3-bis(4-cyanophenyl)urea]",1.91 °C,> 10 µM,
"N#Cc1ccc(NC(=O)Nc2ccc(F)cc2)cc1C(F)(F)F [Compound 254, 1-(4-cyano-3-(trifluoromethyl)phenyl)-3-(4-fluorophenyl)urea]",,4.02 µM,ΔTm at 12.5 µM [1]: 1.84 °C
"N#Cc1ccc(NC(=O)Nc2cccc(-c3nnn[nH]3)c2)cc1 [Compound 280, 1-(3-(1H-tetrazol-5-yl)phenyl)-3-(4-cyanophenyl)urea]",0.01 °C,,
"CN(C)CCc1cc(NC(=O)Nc2ccc(Cl)c(S(=O)(=O)C(F)(F)F)c2)ccc1C#N [Compound 284, 1-(4-chloro-3-((trifluoromethyl)sulfonyl)phenyl)-3-(4-cyano-3-(2-(dimethylamino)ethyl)phenyl)urea]",,> 10 µM,ΔTm at 12.5 µM [1]: 0.62 °C
"COc1cc(NC(=O)Nc2ccc3nsnc3c2)ccc1C#N [Compound 250, 1-(benzo[c][1,2,5]thiadiazol-5-yl)-3-(4-cyano-3-methoxyphenyl)urea]",1.3 °C,> 10 µM,
"N#Cc1ccc(NC(=O)Nc2ccc3c(c2)CCCS3(=O)=O)cc1 [Compound 282, 1-(4-cyanophenyl)-3-(1,1-dioxidothiochroman-6-yl)urea]",-0.97 °C,,
"N#Cc1ccc(NC(=O)Nc2ccc3c(c2)S(=O)(=O)C=C3)cc1C1CCCC1 [Compound 260, 1-(4-cyano-3-cyclopentylphenyl)-3-(1,1-dioxidobenzo[b]thiophen-6-yl)urea]",0.5 °C,,
N#Cc1ncc(NC(=O)Nc2ccc3c(c2)S(=O)(=O)C=C3)cn1 [Compound 269],0.77 °C,> 10 µM,
"COc1cc(NC(=O)Nc2ccc3c(c2)S(=O)(=O)C=C3)ccc1C#N [Compound 249, 1-(4-cyano-3-methoxyphenyl)-3-(1,1-dioxidobenzo[b]thiophen-6-yl)urea]",1.5 °C,4.56 µM,
N#Cc1ccc(NC(=O)Nc2ccc3c(c2)S(=O)(=O)CCC3)cc1 [Compound 279],1.29 °C,> 10 µM,
"N#Cc1ccc(NC(=O)Nc2ccc3c(c2)C=CS3(=O)=O)s1 [Compound 272, 1-(5-cyanothiophen-2-yl)-3-(1,1-dioxidobenzo[b]thiophen-5-yl)urea]",0.86 °C,,

SMILES,"ΔTm at 12.5 µM [1, 4]",IC50 [2],further results
"COc1cc(NC(=O)Nc2ccc(Cl)c(S(=O)(=O)C(F)(F)F)c2)ccc1C#N [Compound 248, 1-(4-chloro-3-((trifluoromethyl)sulfonyl)phenyl)-3-(4-cyano-3-methoxyphenyl)urea]",2.95 °C,3.24 µM,
"N#Cc1ccc(NC(=O)Nc2ccc(F)cc2)cc1 [Compound 255, 1-(4-cyanophenyl)-3-(4-fluorophenyl)urea]",2.22 °C,> 10 µM,
"CC(C)c1cc(NC(=O)Nc2ccc3c(c2)S(=O)(=O)C=C3)ccc1C#N [Compound 263, 1-(4-cyano-3-isopropylphenyl)-3-(1,1-dioxidobenzo[b]thiophen-6-yl)urea]",1.25 °C,,
"N#Cc1cccc(NC(=O)Nc2ccc(Cl)c([N+](=O)[O-])c2)c1 [Compound 238, 1-(4-chloro-3-nitrophenyl)-3-(3-cyanophenyl)urea]",3.49 °C,3.1 µM,
"N#Cc1ccc(NC(=O)Nc2ccc(Cl)c([N+](=O)[O-])c2)cc1 [Compound 239, 1-(4-chloro-3-nitrophenyl)-3-(4-cyanophenyl)urea]",3.13 °C,2.94 µM,
"N#Cc1cnc(NC(=O)Nc2ccc3c(c2)S(=O)(=O)C=C3)nc1 [Compound 270, 1-(5-cyanopyrimidin-2-yl)-3-(1,1-dioxidobenzo[b]thiophen-6-yl)urea]",0.01 °C,> 10 µM,
"N#Cc1ccc(NC(=O)Nc2cccc(C(F)(F)F)c2)cc1 [Compound 274, 1-(4-cyanophenyl)-3-(3-(trifluoromethyl)phenyl)urea]",1.41 °C,,
"CC(=O)N1CCc2ccc(NC(=O)Nc3ccc(C#N)cc3)cc21 [Compound 281, 1-(1-acetylindolin-6-yl)-3-(4-cyanophenyl)urea]",-1.92 °C,,
"N#Cc1ccc(NC(=O)Nc2ccc3c(c2)S(=O)(=O)c2ccccc2-3)cc1 [Compound 277, 1-(4-cyanophenyl)-3-(5,5-dioxidodibenzo[b,d]thiophen-3-yl)urea]",-2.3 °C,5.65 µM,
"N#Cc1ccc(NC(=O)Nc2cccc([N+](=O)[O-])c2)cc1 [Compound 273, 1-(4-cyanophenyl)-3-(3-nitrophenyl)urea]",1.15 °C,,
"N#Cc1ccc(NC(=O)Nc2ccc3c(c2)C=CS3(=O)=O)o1 [Compound 271, 1-(5-cyanofuran-2-yl)-3-(1,1-dioxidobenzo[b]thiophen-5-yl)urea]",0.02 °C,> 10 µM,
COc1cc(NC(=O)Nc2ccc3occc3c2)ccc1C#N [Compound 251],2.06 °C,> 10 µM,
"Cc1ccc(NC(=O)Nc2ccc(Br)c(C(F)(F)F)c2)cc1 [Compound 075, 1-(4-bromo-3-(trifluoromethyl)phenyl)-3-(p-tolyl)urea]",,,ΔTm at 25 µM ([3]; Table 3): 2.61 °C
"O=C(Nc1ccc(F)cc1)Nc1cccc(C(F)(F)F)c1 [Compound 0003, 1-(4-fluorophenyl)-3-(3-(trifluoromethyl)phenyl)urea]",,,ΔTm at 25 µM ([3]; Table 1): 1.78 °C
"CN(C)CCc1ccc(NC(=O)Nc2ccc(C#N)cc2)cc1S(=O)(=O)C(F)(F)F [Compound 287, 1-(4-cyanophenyl)-3-(4-(2-(dimethylamino)ethyl)-3-((trifluoromethyl)sulfonyl)phenyl)urea]",,> 10 µM,
"N#Cc1ccc(NC(=O)Nc2ccc3c(c2)C(=O)CCC3)cc1 [Compound 278, 1-(4-cyanophenyl)-3-(8-oxo-5,6,7,8-tetrahydronaphthalen-2-yl)urea]",-0.95 °C,,
O=C(Nc1cc(Cl)ccc1O)c1ccccc1CSc1ccc(Cl)cc1 [Compound 0104],,,ΔTm at 25 µM ([3]; Table 1): 3.27 °C
"Cc1ccc(NC(=O)Nc2ccc(Br)c(C(F)(F)F)c2)cc1 [Compound 0075, 1-(4-bromo-3-(trifluoromethyl)phenyl)-3-(p-tolyl)urea]",,,ΔTm at 25 µM ([3]; Table 1): 2.61 °C
"Cc1cccc(NC(=O)Nc2ccc(Cl)c([N+](=O)[O-])c2)c1 [Compound 0026, 1-(4-chloro-3-nitrophenyl)-3-(m-tolyl)urea]",,,ΔTm at 25 µM ([3]; Table 1): 5.75 °C
O=C(Nc1cccnc1)c1cc2c(s1)-c1ccccc1CC2 [Compound 0028],,,ΔTm at 25 µM ([3]; Table 1): -9.69 °C
